From patent publication US7524880B2, “Crystalline form of a substituted pyrrolidine compound” (Theravance, Inc., priority 2004, dated 2009) come the findings set out here.

Structures are written as SMILES.

The assay has as its system ACh-induced bronchoconstriction. The assay is described as follows: Duration of bronchoprotection in guinea pig model of acetylcholine-induced bronchoconstriction. It counts as in vivo. The following applies: inhalation, 1.5 hours post-dose. How it is done: Groups of six male guinea pigs (Duncan-Hartley (HsdPoc:DH) Harlan, Madison, Wis.) weighing between 250 and 350 g were individually identified by cage cards. Throughout the study animals were allowed access to food and water ad libitum.
The test compound was administered via inhalation over 10 minutes in a whole-body exposure dosing chamber (R&S Molds, San Carlos, Calif.). The dosing chambers were arranged so that an aerosol was simultaneously delivered to 6 individual chambers from a central manifold. Guinea pigs were exposed to an aerosol of a test compound or vehicle (WFI). […] This was measured gravimetrically by comparing pre-and post-nebulization weights of the filled nebulizer.
The bronchoprotective effects of a test compound administered via inhalation were evaluated using whole body plethysmography at 1.5, 24, 48 and 72 hours post-dose.
Forty-five minutes prior to the start of the pulmonary evaluation, each guinea pig was anesthetized with an intramuscular injection of ketamine (43.75 mg/kg), xylazine (3.50 mg/kg) and acepromazine (1.05 mg/kg). […] The depth of anesthesia was monitored and adjusted if the animal responded to pinching of its paw or if the respiration rate was greater than 100 breaths/minute. […]
Starting this program initiated the experimental protocol and data collection. […] By integrating this signal over time, a measurement of flow was calculated for each breath. […]

On to `CNCCCCCCCCN1CC[C@@H](C(C(N)=O)(c2ccccc2)c2ccccc2)C1` [compound of formula I, 2-[(S)-1-(8-methylaminooctyl)pyrrolidin-3-yl]-2,2-diphenylacetamide], for which the “PD2(50) for ACh-induced bronchoconstriction” value is “less than 200 μg/mL”.
